Reference: article PMC7448272, “Acetylation of Surface Carbohydrates in Bacterial Pathogens Requires Coordinated Action of a Two-Domain Membrane-Bound Acyltransferase” (mBio, 2020)

Assays:
Assay in all cases: acetylesterase assay, absorbance at […] nm, plate reader
Assay type in all cases: biochemical
[1] = molecular target: T1, OafA-STM^C-long (Salmonella enterica, UniProt Q8ZNJ3); conditions: 10 uM enzyme, 0.5 mM substrate final, 37 C; also acetyl donor for LPS acetylation
T1 construct: periplasmic C-terminal SGNH domain with full SGNHext, residues 366-609; N-terminal His-MBP tag (3C-cleavable) removed; expressed in E. coli Origami

[2] = molecular target: T2, OafB-SPA^C-short (Salmonella enterica, UniProt A0A0H2WM30); conditions: 40 uM enzyme (methods print OafB-STM^C-term), 0.5 mM substrate final, 37 C; also acetyl donor for LPS acetylation
T2 construct: gene SPA0467; periplasmic C-terminal SGNH domain with shortened SGNHext, residues 399-640; codon-optimised gene; N-terminal His-MBP tag (3C-cleavable) removed; expressed in E. coli Origami

[3] = molecular target: T3, OafA-STM^C-short (Salmonella enterica, UniProt Q8ZNJ3); conditions: 10 uM enzyme, 0.5 mM substrate final, 37 C; also acetyl donor for LPS acetylation
T3 construct: periplasmic C-terminal SGNH domain with shortened SGNHext, residues 379-609; N-terminal His-MBP tag (3C-cleavable) removed; expressed in E. coli Origami

[4] = molecular target: T4, OafB-SPA^C-long (Salmonella enterica, UniProt A0A0H2WM30); conditions: 40 uM enzyme (methods print OafB-STM^C-term), 0.5 mM substrate final, 37 C
T4 construct: gene SPA0467; periplasmic C-terminal SGNH domain with full SGNHext, residues 377-640; codon-optimised gene; N-terminal His-MBP tag (3C-cleavable) removed; expressed in E. coli Origami
T4 sequence (A0A0H2WM30 entry or part of it): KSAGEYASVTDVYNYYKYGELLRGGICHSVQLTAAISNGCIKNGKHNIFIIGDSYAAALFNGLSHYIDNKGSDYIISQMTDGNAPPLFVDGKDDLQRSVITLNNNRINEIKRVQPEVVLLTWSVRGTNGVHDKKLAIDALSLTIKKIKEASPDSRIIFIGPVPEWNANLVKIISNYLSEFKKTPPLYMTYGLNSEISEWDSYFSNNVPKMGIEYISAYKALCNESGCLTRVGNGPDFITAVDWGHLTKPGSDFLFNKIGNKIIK

T2 sequence (A0A0H2WM30 entry or part of it): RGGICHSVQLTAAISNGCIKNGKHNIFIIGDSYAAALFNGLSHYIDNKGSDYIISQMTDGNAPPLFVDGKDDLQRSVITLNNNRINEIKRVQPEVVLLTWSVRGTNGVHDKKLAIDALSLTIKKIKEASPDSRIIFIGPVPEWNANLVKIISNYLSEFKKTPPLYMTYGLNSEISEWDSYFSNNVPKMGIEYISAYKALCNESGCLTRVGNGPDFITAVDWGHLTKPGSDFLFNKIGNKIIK
T1 sequence (Q8ZNJ3 entry or part of it): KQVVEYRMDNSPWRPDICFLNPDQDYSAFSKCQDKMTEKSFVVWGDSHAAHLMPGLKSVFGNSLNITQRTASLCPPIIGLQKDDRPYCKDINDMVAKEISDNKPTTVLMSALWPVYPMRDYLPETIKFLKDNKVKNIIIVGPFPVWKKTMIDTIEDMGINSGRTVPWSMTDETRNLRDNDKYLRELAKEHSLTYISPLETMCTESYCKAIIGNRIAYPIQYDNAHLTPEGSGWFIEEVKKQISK
T3 sequence (Q8ZNJ3 entry or part of it): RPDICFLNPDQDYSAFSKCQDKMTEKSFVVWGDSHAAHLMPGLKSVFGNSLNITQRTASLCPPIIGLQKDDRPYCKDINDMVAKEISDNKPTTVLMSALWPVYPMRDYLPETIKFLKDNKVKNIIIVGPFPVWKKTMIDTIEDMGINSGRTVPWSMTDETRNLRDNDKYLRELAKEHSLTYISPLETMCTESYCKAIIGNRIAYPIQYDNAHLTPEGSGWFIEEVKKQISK

For CC(=O)Oc1ccc([N+](=O)[O-])cc1 [p-nitrophenyl acetate], the “acetylesterase assay, absorbance at 405 nm, plate reader” value (“acetylesterase assay, absorbance” for short) [1] was “all constructs via their ability to hydrolyze the ester substrate p-nitrophenyl acetate (pNP-Ac)”, the “acetylesterase assay, absorbance” value [2] was “all constructs via their ability to hydrolyze the ester substrate p-nitrophenyl acetate (pNP-Ac)” and the “acetylesterase assay, absorbance” value [3] was “all constructs via their ability to hydrolyze the ester substrate p-nitrophenyl acetate (pNP-Ac)”. The “acetylesterase assay, absorbance” value [4] was “all constructs via their ability to hydrolyze the ester substrate p-nitrophenyl acetate (pNP-Ac)”.
